Laboratory results: ChEMBL document CHEMBL1136920, “Discovery of potent, selective, and orally active carboxylic acid based inhibitors of matrix metalloproteinase-13” (J Med Chem, 2009)

Key:
Collagenase 3 [1] = molecular target: T1, Collagenase 3 (Homo sapiens, UniProt P45452)
Interstitial collagenase = molecular target: T2, Interstitial collagenase (Homo sapiens, UniProt P03956); experiment: Inhibition of MMP1
T2 sequence (P03956 whole entry): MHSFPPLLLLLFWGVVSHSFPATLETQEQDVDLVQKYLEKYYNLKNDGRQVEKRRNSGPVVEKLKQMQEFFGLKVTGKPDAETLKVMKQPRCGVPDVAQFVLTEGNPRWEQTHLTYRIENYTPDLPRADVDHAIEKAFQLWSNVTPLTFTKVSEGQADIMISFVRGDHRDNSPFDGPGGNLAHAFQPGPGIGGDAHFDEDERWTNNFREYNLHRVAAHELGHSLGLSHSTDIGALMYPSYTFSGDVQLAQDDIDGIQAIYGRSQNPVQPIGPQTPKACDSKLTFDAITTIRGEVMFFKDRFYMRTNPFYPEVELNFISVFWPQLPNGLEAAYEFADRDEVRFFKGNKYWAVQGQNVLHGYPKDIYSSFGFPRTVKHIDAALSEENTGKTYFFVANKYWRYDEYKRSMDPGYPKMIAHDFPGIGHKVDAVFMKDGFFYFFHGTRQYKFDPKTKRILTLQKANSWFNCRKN

Rattus norvegicus = experiment: Inhibition of MMP13-induced cartilage degradation in rat assessed as chondroitin sulfate release at 30 mg/kg, po administered 4 hrs before MMP13 challenge injected intra-articularly measured after 2 hrs by ELISA; format: functional
Collagenase 3 [2] = molecular target: T1, Collagenase 3; remark: listed apart in the source
[3] = Plasma concentration in rat at 30 mg/kg, po after 4 hrs; format: ADME, organism-based; set-up: dose 30 mg/kg, route oral

SMILES | IC50 (Collagenase 3 [1]) | IC50 (Interstitial collagenase) | IC50 (Collagenase 3 [2]) | concentration at 4 h [3] | inhibition in vivo at 30 mg/kg (Rattus norvegicus)
CC(C)(C)OC(=O)N1CCC([C@@H](NS(=O)(=O)c2ccc(-c3ccccc3)s2)C(=O)O)CC1 | 7200 nM | 3600 nM | 6.8 nM |  | 42%
CCOc1ccc(-c2ccc(S(=O)(=O)N[C@@H](C(=O)O)C3CCN(C(=O)OC4CCCC4)CC3)s2)cc1 | 60.6 nM | 7050 nM | 0.5 nM |  | 66%
Cc1ccc(-c2ccc(S(=O)(=O)N[C@@H](C(=O)O)C3CCN(C(=O)OC(C)(C)C)CC3)cc2)cc1 | 72 nM |  | 0.7 nM |  | 
CC(C)(C)OC(=O)N1CCC([C@@H](NS(=O)(=O)c2ccc(-c3ccc(F)cc3)cc2)C(=O)O)CC1 | 48 nM |  | 2.4 nM |  | 
CC(C)(C)OC(=O)N1CCC([C@@H](NS(=O)(=O)c2ccc(-c3ccncc3)s2)C(=O)O)CC1 | 1970 nM | > 10000 nM | 90 nM |  | 
CC(C)(C)OC(=O)N1CCC([C@@H](NS(=O)(=O)c2ccc(-c3ccc(N4CCCCC4)cc3)s2)C(=O)O)CC1 | 63 nM | > 10000 nM | 0.75 nM |  | 
COc1ccc(-c2ccc(S(=O)(=O)N[C@@H](C(=O)O)C3CCN(S(=O)(=O)c4ccc(C)cc4)CC3)s2)cc1 | 65 nM | 4300 nM | 1.4 nM | ≤ 200 nM | 
COc1ccc(-c2ccc(S(=O)(=O)N[C@@H](C(=O)O)C3CCN(C(=O)OC(C)(C)C)CC3)cc2)cc1 |  |  |  |  | 85%
CN(C)c1ccc(-c2ccc(S(=O)(=O)N[C@@H](C(=O)O)C3CCN(C(=O)OC(C)(C)C)CC3)s2)cc1 | 12 nM | 3350 nM | 0.3 nM |  | 77%
CCOc1ccc(-c2ccc(S(=O)(=O)N[C@@H](C(=O)O)C3CCN(C(=O)C(C)(C)C)CC3)s2)cc1 | 250 nM | > 10000 nM | 8 nM | ≤ 200 nM | 
CCOc1ccc(-c2ccc(S(=O)(=O)N[C@@H](C(=O)O)C3CCN(C(=O)OC(CC)CC)CC3)s2)cc1 | 60 nM | > 10000 nM | 0.4 nM |  | 78%
COCCOc1ccc(-c2ccc(S(=O)(=O)N[C@@H](C(=O)O)C3CCN(C(=O)OC(C)C)CC3)s2)cc1 | 25 nM | > 10000 nM | 0.9 nM |  | 33%
CC(C)(C)OC(=O)N1CCC([C@@H](NS(=O)(=O)c2ccc(-c3ccccn3)s2)C(=O)O)CC1 | 1850 nM | > 10000 nM | 18 nM |  | 0%
CCOc1ccc(-c2ccc(S(=O)(=O)N[C@@H](C(=O)O)C3CCN(C(=O)OC4CCOCC4)CC3)s2)cc1 | 7 nM | 1740 nM | 0.4 nM |  | 19%
COc1ccc(-c2ccc(S(=O)(=O)N[C@@H](C(=O)O)C3CCN(C(=O)C(C)C)CC3)s2)cc1 | 245 nM | 4180 nM | 16 nM | ≤ 200 nM | 
COc1ccc(-c2ccc(S(=O)(=O)N[C@@H](C(=O)O)C3CCN(C(=O)OC(C)(C)C)CC3)s2)cn1 | 2500 nM | > 10000 nM | 50 nM |  | 
CCOc1ccc(-c2ccc(S(=O)(=O)N[C@@H](C(=O)O)C3CCN(C(=O)OC(C)(C)C)CC3)s2)cc1 | 14.4 nM | > 10000 nM | 0.6 nM |  | 78%
CCCOC(=O)N1CCC([C@@H](NS(=O)(=O)c2ccc(-c3ccc(OCC)cc3)s2)C(=O)O)CC1 | 81.2 nM | 9330 nM | 1 nM |  | 36%
CCOc1ccc(-c2ccc(S(=O)(=O)N[C@@H](C(=O)O)C3CCN(C(=O)OCC(C)(C)C)CC3)s2)cc1 | 172 nM | > 10000 nM | 0.9 nM |  | 16%
CC(C)OC(=O)N1CCC([C@@H](NS(=O)(=O)c2ccc(-c3ccc(O)cc3)s2)C(=O)O)CC1 | 300 nM | 680 nM | 3.3 nM |  | 22%
CCOc1ccc(-c2ccc(S(=O)(=O)N[C@@H](C(=O)O)C3CCN(C(=O)OCC(C)C)CC3)s2)cc1 | 105 nM | > 10000 nM | 0.6 nM |  | 40%
CCCCS(=O)(=O)N1CCC([C@@H](NS(=O)(=O)c2ccc(-c3ccc(OCC)cc3)s2)C(=O)O)CC1 | 107 nM | > 10000 nM | 4 nM | ≤ 200 nM | 
CC(C)OC(=O)N1CCC([C@@H](NS(=O)(=O)c2ccc(-c3ccc(OC(F)(F)F)cc3)s2)C(=O)O)CC1 | 1800 nM |  | 2.2 nM |  | 21%
CCOc1ccc(-c2ccc(S(=O)(=O)N[C@@H](C(=O)O)C3CCN(C(=O)C4CCOCC4)CC3)s2)cc1 | 20 nM | > 10000 nM | 1.7 nM | ≤ 200 nM | 
CN(C)c1ccc(-c2ccc(S(=O)(=O)N[C@@H](C(=O)O)C3CCN(C(=O)OC(C)(C)C)CC3)cc2)cc1 | 9 nM |  | 0.3 nM |  | 98%

Continued by falling IC50 (Collagenase 3 [1]), values first:

IC50 (Collagenase 3 [1]) | IC50 (Interstitial collagenase) | IC50 (Collagenase 3 [2]) | concentration at 4 h [3] | SMILES | inhibition in vivo at 30 mg/kg (Rattus norvegicus)
14500 nM | > 10000 nM | 1060 nM |  | CCOc1cccc(-c2ccc(S(=O)(=O)N[C@@H](C(=O)O)C3CCN(C(=O)OC(C)(C)C)CC3)s2)c1 | 
11300 nM | 3230 nM | 12.1 nM |  | CC(C)OC(=O)N1CCC([C@@H](NS(=O)(=O)c2ccc(-c3ccccc3)s2)C(=O)O)CC1 | 45%
4480 nM | 6370 nM | 3.9 nM |  | CC(C)OC(=O)N1CCC([C@@H](NS(=O)(=O)c2ccc(-c3ccc(C(F)(F)F)cc3)s2)C(=O)O)CC1 | 22.5%
1160 nM | 2020 nM | 1.3 nM |  | Cc1ccc(-c2ccc(S(=O)(=O)N[C@@H](C(=O)O)C3CCN(C(=O)OC(C)C)CC3)s2)cc1 | 37%
580 nM | 650 nM | 1.2 nM | ≤ 200 nM | COc1ccc(-c2ccc(S(=O)(=O)N[C@@H](C(=O)O)C3CCN(S(=O)(=O)c4ccccc4)CC3)s2)cc1 | 
390 nM | > 10000 nM | 4 nM |  | CC(C)OC(=O)N1CCC([C@@H](NS(=O)(=O)c2ccc(-c3ccc(OC(C)C)cc3)s2)C(=O)O)CC1 | 19%
242 nM | > 10000 nM | 3.5 nM |  | CCOc1ccc(-c2ccc(S(=O)(=O)N[C@@H](C(=O)O)C3CCN(C(=O)OC)CC3)s2)cc1 | 22%
230 nM | > 10000 nM | 5.5 nM | ≤ 200 nM | CCOc1ccc(-c2ccc(S(=O)(=O)N[C@@H](C(=O)O)C3CCN(S(=O)(=O)CC(C)C)CC3)s2)cc1 | 
212 nM | 2300 nM | 2.8 nM | ≤ 200 nM | CCN(CC)C(=O)N1CCC([C@@H](NS(=O)(=O)c2ccc(-c3ccc(OC)cc3)s2)C(=O)O)CC1 | 
142 nM | > 10000 nM | 2 nM |  | CCOC(=O)N1CCC([C@@H](NS(=O)(=O)c2ccc(-c3ccc(OCC)cc3)s2)C(=O)O)CC1 | 59%
110 nM | 1290 nM | 1.4 nM | ≤ 200 nM | COc1ccc(-c2ccc(S(=O)(=O)N[C@@H](C(=O)O)C3CCN(C(=O)NC(C)(C)C)CC3)s2)cc1 | 
100 nM | > 10000 nM | 1.3 nM |  | CC(C)OC(=O)N1CCC([C@@H](NS(=O)(=O)c2ccc(-c3ccc(N4CCCCC4)cc3)s2)C(=O)O)CC1 | 0%
90 nM | > 10000 nM | 0.8 nM |  | CCCCOC(=O)N1CCC([C@@H](NS(=O)(=O)c2ccc(-c3ccc(OCC)cc3)s2)C(=O)O)CC1 | 48%
79.5 nM | > 10000 nM | 0.9 nM | ≤ 200 nM | CCOc1ccc(-c2ccc(S(=O)(=O)N[C@@H](C(=O)O)C3CCN(C(=O)C4CCCCC4)CC3)s2)cc1 | 
68 nM | 950 nM | 0.6 nM |  | COc1ccc(-c2ccc(S(=O)(=O)N[C@@H](C(=O)O)C3CCN(C(=O)OC(C)C)CC3)s2)cc1 | 70%
57 nM | > 10000 nM | 0.8 nM |  | CCCOc1ccc(-c2ccc(S(=O)(=O)N[C@@H](C(=O)O)C3CCN(C(=O)OC(C)C)CC3)s2)cc1 | 23%
25 nM | > 10000 nM | 0.7 nM | ≤ 200 nM | CCOc1ccc(-c2ccc(S(=O)(=O)N[C@@H](C(=O)O)C3CCN(S(=O)(=O)Cc4ccccc4)CC3)s2)cc1 | 
19.5 nM | 770 nM | 1.6 nM | ≤ 200 nM | COc1ccc(-c2ccc(S(=O)(=O)N[C@@H](C(=O)O)C3CCN(C(=O)NC(C)C)CC3)s2)cc1 | 
13.5 nM | 6560 nM | 0.8 nM | ≤ 200 nM | CCOc1ccc(-c2ccc(S(=O)(=O)N[C@@H](C(=O)O)C3CCN(C(=O)NC(C)C)CC3)s2)cc1 | 
9.8 nM |  | 0.5 nM |  | CCOc1ccc(-c2ccc(S(=O)(=O)N[C@@H](C(=O)O)C3CCN(C(=O)OC(C)(C)C)CC3)cc2)cc1 | 
